From paper PMC12445744, “Molecular docking to homology models of human and Trypanosoma brucei ERK8 that identified ortholog-specific inhibitors” (PLOS Neglected Tropical Diseases, 2025)
“And” between values parts separate entries of the source, which are not always exact repeats. Equal entries are not always repeated.

Molecular target: T1, HsERK8 (Homo sapiens, UniProt Q8TD08)
T1 construct: plasmid pGEX2T expressing the full-length hERK8 coding region; made in house; host or cells: Escherichia coli Rosetta 2 (DE3)
T1 sequence (Q8TD08 1-544): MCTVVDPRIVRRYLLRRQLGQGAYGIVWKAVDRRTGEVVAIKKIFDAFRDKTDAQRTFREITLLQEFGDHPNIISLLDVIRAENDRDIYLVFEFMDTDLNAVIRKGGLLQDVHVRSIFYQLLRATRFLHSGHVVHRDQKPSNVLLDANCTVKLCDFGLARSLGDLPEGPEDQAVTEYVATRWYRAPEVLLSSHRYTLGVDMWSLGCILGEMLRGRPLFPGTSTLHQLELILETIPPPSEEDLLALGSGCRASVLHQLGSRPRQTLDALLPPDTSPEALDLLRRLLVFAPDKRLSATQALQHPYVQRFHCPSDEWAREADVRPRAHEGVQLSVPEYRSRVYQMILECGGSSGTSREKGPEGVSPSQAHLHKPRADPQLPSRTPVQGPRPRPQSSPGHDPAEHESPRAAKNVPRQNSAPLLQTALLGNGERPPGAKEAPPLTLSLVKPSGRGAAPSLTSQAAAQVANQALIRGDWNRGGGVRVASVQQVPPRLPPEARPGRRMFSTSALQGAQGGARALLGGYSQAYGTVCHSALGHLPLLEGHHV
Assay: Luciferase-based kinase inhibition assay (ATP luminescence), GST-tagged HsERK8 with MBP substrate
Assay type: biochemical
Settings: for raw luminescence, HsERK8: replicate wells; for raw luminescence, HsERK8 / Luminescence Raw (Kinase-Glo): listed as Sil; for Luminescence Raw (Kinase-Glo): HsERK8

## CCCc1nn(C)c2c(=O)[nH]c(-c3cc(S(=O)(=O)N4CCN(C)CC4)ccc3OCC)nc12 [Sildenafil]
0.00015 mM compound, sheet ADP_ATP_glo081724 (3)
  raw luminescence, HsERK8: 2773.07 RLU and 2877.12 RLU and 2182.72 RLU
0.00015 mM compound, sheet Kinase_glo 08142024 (2)
  raw luminescence, HsERK8: 6784.32 RLU and 6634.26 RLU and 5826.91 RLU
0.00015 mM compound, sheet Kinase_glo_080924_IFPS (2)
  raw luminescence, HsERK8: 3800.03 RLU and 4341.28 RLU and 3728.16 RLU
0.00061 mM compound, sheet ADP_ATP_glo081724 (3)
  raw luminescence, HsERK8: 3277.47 RLU and 3338.54 RLU and 3085.21 RLU
0.00061 mM compound, sheet Kinase_glo 08142024 (2)
  raw luminescence, HsERK8: 5721.23 RLU and 5653.6 RLU and 3903.63 RLU
0.00061 mM compound, sheet Kinase_glo_080924_IFPS (2)
  raw luminescence, HsERK8: 1396.94 RLU and 1477.79 RLU and 1381.21 RLU
0.00244 mM compound, sheet ADP_ATP_glo081724 (3)
  raw luminescence, HsERK8: 3469.73 RLU and 3284.26 RLU and 2883.9 RLU
0.00244 mM compound, sheet Kinase_glo 08142024 (2)
  raw luminescence, HsERK8: 7264.08 RLU and 7348.62 RLU and 5611.33 RLU
0.00244 mM compound, sheet Kinase_glo_080924_IFPS (2)
  raw luminescence, HsERK8: 3130.75 RLU and 3411.49 RLU and 2899.43 RLU
0.00977 mM compound, sheet ADP_ATP_glo081724 (3)
  raw luminescence, HsERK8: 2892.95 RLU and 2795.69 RLU and 2354.62 RLU
0.00977 mM compound, sheet Kinase_glo 08142024 (2)
  raw luminescence, HsERK8: 7046.4 RLU and 7135.16 RLU and 5429.57 RLU
0.00977 mM compound, sheet Kinase_glo_080924_IFPS (2)
  raw luminescence, HsERK8: 3247.54 RLU and 3584.42 RLU and 3180.16 RLU
0.03906 mM compound, sheet ADP_ATP_glo081724 (3)
  raw luminescence, HsERK8: 3397.35 RLU and 3566.99 RLU and 3141.76 RLU
0.03906 mM compound, sheet Kinase_glo 08142024 (2)
  raw luminescence, HsERK8: 6515.91 RLU and 6714.58 RLU and 5167.5 RLU
0.03906 mM compound, sheet Kinase_glo_080924_IFPS (2)
  raw luminescence, HsERK8: 3400.26 RLU and 3463.14 RLU and 3305.93 RLU
50 μM ATP, 30 min 30°C, triplicate, n/d = no detectible inhibition, read-out: HsERK8 IC50
  IC50: 8 mM
0.15625 mM compound, sheet ADP_ATP_glo081724 (3)
  raw luminescence, HsERK8: 3281.99 RLU and 3150.8 RLU and 2531.05 RLU
0.15625 mM compound, sheet Kinase_glo 08142024 (2)
  raw luminescence, HsERK8: 6655.4 RLU and 6579.31 RLU and 5562.72 RLU
0.15625 mM compound, sheet Kinase_glo_080924_IFPS (2)
  raw luminescence, HsERK8: 3817.99 RLU and 4080.76 RLU and 3636.08 RLU
0.62500 mM compound, sheet ADP_ATP_glo081724 (3)
  raw luminescence, HsERK8: 3474.25 RLU and 3356.64 RLU and 2585.33 RLU
0.62500 mM compound, sheet Kinase_glo 08142024 (2)
  raw luminescence, HsERK8: 8487.8 RLU and 8306.04 RLU and 6687.1 RLU
0.62500 mM compound, sheet Kinase_glo_080924_IFPS (2)
  raw luminescence, HsERK8: 5547.32 RLU and 5693.3 RLU and 4916.23 RLU
2.50000 mM compound, sheet ADP_ATP_glo081724 (3)
  raw luminescence, HsERK8: 11748.2 RLU and 11610.3 RLU and 8563.49 RLU
2.50000 mM compound, sheet Kinase_glo 08142024 (2)
  raw luminescence, HsERK8: 29728.4 RLU and 30364.6 RLU and 22572.1 RLU
2.50000 mM compound, sheet Kinase_glo_080924_IFPS (2)
  raw luminescence, HsERK8: 13814.9 RLU and 12641.6 RLU and 13534.9 RLU
10.00000 mM compound, sheet ADP_ATP_glo081724 (3)
  raw luminescence, HsERK8: 18796.3 RLU and 18852.8 RLU and 18760.1 RLU
10.00000 mM compound, sheet Kinase_glo 08142024 (2)
  raw luminescence, HsERK8: 37233.5 RLU and 36922.8 RLU and 36986.2 RLU
10.00000 mM compound, sheet Kinase_glo_080924_IFPS (2), signal = ATP left
  raw luminescence, HsERK8: 19808.3 RLU and 19442.1 RLU and 19894.1 RLU
Inhibitor 0.00976562 mM, sheet Sil_Pred3, read 3
  Luminescence Raw (Kinase-Glo): 76824 and 76849.7 and 75718.2
Inhibitor 0.0195312 mM, sheet Sil_Pred3, read 3
  Luminescence Raw (Kinase-Glo): 84913.3 and 83327.3 and 84201.1
Inhibitor 0.0390625 mM, sheet Sil_Pred3, read 3
  Luminescence Raw (Kinase-Glo): 86810.9 and 87656.6 and 88003.3
Inhibitor 0.078125 mM, sheet Sil_Pred3, read 3
  Luminescence Raw (Kinase-Glo): 83688.1 and 81764.7 and 82605.8
Inhibitor 0.15625 mM, sheet Sil_Pred3, read 3
  Luminescence Raw (Kinase-Glo): 84571.3 and 87872.1 and 86433.7
Inhibitor 0.3125 mM, sheet Sil_Pred3, read 3
  Luminescence Raw (Kinase-Glo): 80438.8 and 81286.8 and 83022.8
Inhibitor 0.625 mM, sheet Sil_Pred3, read 3
  Luminescence Raw (Kinase-Glo): 81408.6 and 81148.6 and 80450.5
Inhibitor 0.00976562, sheet Sil_Pred1, read 1
  Luminescence Raw (Kinase-Glo): 87353.2 and 86988.7 and 86809.9
Inhibitor 0.00976562, sheet Sil_Pred2, read 2
  Luminescence Raw (Kinase-Glo): 79598.9 and 79331.5 and 78826.8
Inhibitor 0.0195312, sheet Sil_Pred1, read 1
  Luminescence Raw (Kinase-Glo): 97908.4 and 96150.4 and 96258.1
Inhibitor 0.0195312, sheet Sil_Pred2, read 2
  Luminescence Raw (Kinase-Glo): 87627.4 and 86394.8 and 87122.7
Inhibitor 0.0390625, sheet Sil_Pred1, read 1
  Luminescence Raw (Kinase-Glo): 100125 and 101023 and 101243
Inhibitor 0.0390625, sheet Sil_Pred2, read 2
  Luminescence Raw (Kinase-Glo): 89720.6 and 90218.3 and 91030
Inhibitor 0.078125, sheet Sil_Pred1, read 1
  Luminescence Raw (Kinase-Glo): 96870.1 and 94163.1 and 94380.9
Inhibitor 0.078125, sheet Sil_Pred2, read 2
  Luminescence Raw (Kinase-Glo): 86171.5 and 85045.8 and 85399.3
Inhibitor 0.15625, sheet Sil_Pred1, read 1
  Luminescence Raw (Kinase-Glo): 97571.5 and 101844 and 101823
Inhibitor 0.15625, sheet Sil_Pred2, read 2
  Luminescence Raw (Kinase-Glo): 87601.8 and 91464.9 and 91334.7
Inhibitor 0.3125, sheet Sil_Pred1, read 1
  Luminescence Raw (Kinase-Glo): 91875.5 and 94802.6 and 96700.5
Inhibitor 0.3125, sheet Sil_Pred2, read 2
  Luminescence Raw (Kinase-Glo): 83203.8 and 85106.3 and 85450.5
Inhibitor 0.625 (mM per sheet Pred3), sheet Kinase-Glo802124_Sil_Pred1, read 1, triplicate wells
  Luminescence Raw (Kinase-Glo): 95077.7 and 94021 and 92790.1
Inhibitor 0.625, sheet Sil_Pred2, read 2
  Luminescence Raw (Kinase-Glo): 85048.1 and 84027.1 and 84180.6
